Test results as given in patent US20230213511A1, “METHOD FOR EVALUATING ALLERGEN INACTIVATORS AND KIT FOR EVALUATING ALLERGEN INACTIVATORS” (SCHOOL CORPORATION, AZABU VETERINARY MEDICINE EDUCATIONAL …, priority 2020, published 2023).

Tests used:
[1] = molecular target: T1, purified mite allergens "Der f1" (Dermatophagoides farinae, UniProt P16311); test: Immunostaining of purified mite allergens supported on a PVDF membrane after treatment using the test drug; format: biochemical; conditions: two hours at normal temperature, vs PBS (−); for capacity for recognition by the specific antibodies (anti-Der f1 monoclonal antibodies), immunostaining: 5 ppm Bi-jia water, 5 ppm sodium hypochlorite, 6M guanidine; for properties enabling recognition by the specific antibodies (anti-Der f1 monoclonal antibodies), immunostaining: test example 3, 30 v/v % hydrogen peroxide water, 10 mM hydrochloric acid (pH 2)
T1 construct: purchased ITEA Inc
T1 sequence (P16311 99-321): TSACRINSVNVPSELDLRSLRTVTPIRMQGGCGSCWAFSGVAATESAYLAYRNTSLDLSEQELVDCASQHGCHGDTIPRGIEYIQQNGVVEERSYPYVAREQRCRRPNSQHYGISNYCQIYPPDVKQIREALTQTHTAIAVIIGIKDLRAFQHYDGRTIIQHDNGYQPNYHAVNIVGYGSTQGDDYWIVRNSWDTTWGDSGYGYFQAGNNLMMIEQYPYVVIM
Procedure: (3-1. PVDF membrane) • A PVDF membrane (pore diameter: 0.45 μm) was immersed in methanol to be made hydrophilic, after which a prescribed quantity of allergens was blotted onto the PVDF membrane in a dot formation (0-100 ng/dot).
(4. Treatment using test drug) • The allergen-supporting membrane was washed three times using PBS (−). • The membrane was placed in a plastic container and immersed in 5 mL of a solution containing the test drug. • The membrane was allowed to stand for two hours at normal temperature. • The solution of the test drug was discarded, and the membrane was washed three times using PBS (−). • Protein staining or immunostaining was carried out.
(6. Immunostaining) • The allergen-supporting membrane (after “4. Treatment using test drug” described above) was immersed in 1 w/v % gelatin-containing PBS and was blocked for ten minutes at 37° C. • The blocking liquid was discarded, and the membrane was washed three times using PBS (−). • Primary antibodies were diluted using 1 w/v % BSA-containing PBST (0.02 v/v % Tween-20) so as to reach a concentration of 1 μg/mL, 2 mL of the primary antibodies was added to the blocked membrane, and a reaction was carried out for 30 minutes at normal temperature while the membrane was shaken. • A primary antibody reaction solution was discarded, and the membrane was washed three times using PBST. • HRP-labeled secondary antibodies (product name “HRP-Goat anti-Mouse IgG,” made by Zymed Laboratories) were diluted using 1 w/v % BSA-containing PBST (0.02 v/v % Tween-20) so as to reach a concentration of 3 μg/mL, 2 mL of the secondary antibodies was added to the membrane reacted with the primary antibodies, and a reaction was carried out for 30 minutes at normal temperature while the membrane was shaken. • A secondary antibody reaction solution was discarded, and the membrane was washed four times using PBST. • An amount of 1 mL of a coloring reagent solution (product name “Ez West Blue,” made by ATTO Co., Ltd.) was added to the membrane reacted with the secondary antibodies, and a reaction was carried out for ten minutes. • The membrane was washed using a large amount of distilled water, and the reaction was stopped. • The membrane was allowed to spontaneously dry.
(§1) Specifically, purified mite allergens were dot-blotted in an amount of 0, 12.5, 25, 50, or 100 ng onto a single PVDF membrane cut into a rectangular strip to produce an allergen-supporting membrane. Two identical allergen-supporting membranes were provided in this manner. First, the two allergen-supporting membranes were treated using the same test drug, a washing treatment using PBS was furthermore carried out, and then one of the treated membranes was supplied for protein staining using the gold stain and the other of the treated membranes was supplied for immunostaining using the anti-Der f1 monoclonal antibodies.
as §1, with “4, 20,” for “12.5, 25, 50,”, “antibodies. […]” for “antibodies.”

[2] = molecular target: T2, purified Japanese cedar pollen allergens "Cry j1" (Cryptomeria japonica, UniProt P18632); test: Immunostaining of Cry j1 on multiscreen filter plate with PVDF filter membrane after treatment using the test drug; format: biochemical; conditions: test example 9, two hours at normal temperature, 0.1% SDS, 6M guanidine, other drugs of FIG. 16, vs PBS
T2 construct: purchased ITEA Inc
T2 sequence (P18632 22-374): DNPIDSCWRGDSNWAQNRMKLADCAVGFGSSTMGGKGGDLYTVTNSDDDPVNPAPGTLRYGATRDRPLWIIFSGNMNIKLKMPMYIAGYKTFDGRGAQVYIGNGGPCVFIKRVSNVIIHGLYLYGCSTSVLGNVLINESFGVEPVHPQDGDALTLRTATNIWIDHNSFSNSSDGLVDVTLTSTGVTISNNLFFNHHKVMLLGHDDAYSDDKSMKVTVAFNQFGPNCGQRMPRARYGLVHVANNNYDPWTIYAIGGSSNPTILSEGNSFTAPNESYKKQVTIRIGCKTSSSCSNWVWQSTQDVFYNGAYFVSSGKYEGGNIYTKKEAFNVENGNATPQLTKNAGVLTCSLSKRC
From the text: […]

[3] = system: extract from the grass Phleum pratense, the weed Plantago lanceolata, or house dust containing Dermatophagoides pteronyssinus; conditions: extract treated using a 1% aqueous solution of tannic acid; cited from earlier work
[4] = molecular target: T2, purified Japanese cedar pollen allergens "Cry j1"; test: Immunostaining of Cry j1 on multiscreen filter plate with cellulose mixed ester filter membrane after treatment using the test drug; format: biochemical; conditions: test example 8, two hours at normal temperature, 5 ppm NaClO (Bi-jia water), 6M guanidine, other drugs of FIG. 15, vs PBS
Procedure: A test for evaluating allergen inactivators was conducted using, as an allergen support, a multiscreen filter plate (MultiScreen HTS HA sterile plate, Millipore, #MSHAS4510) provided with a filter membrane composed of a cellulose mixed ester (substance similar to nitrocellulose) in each well. Specifically, as per the main points of the operational procedure for the test shown in FIG. 6, a test was conducted in accordance with the following protocol.
(1. Formulation of Allergen-Supporting Membrane and Treatment Carried Out Using Test Drug) • An amount of 2 μL of purified Japanese cedar pollen allergens (product name “Cry j1”) (made by ITEA Inc.) (origin: Japanese cedar (Cryptomeria japonica)) in each stage of dilution (50, 10, 2, or 0 ng/μL) was added dropwise into each well of the multiscreen filter plate and was allowed to spontaneously dry. • Filtration washing was carried out three times using 200 μL of PBS. • An amount of 200 μL of the drugs being examined (the various drugs being examined, and concentrations thereof, shown in FIG. 15; PBS as a control) was added, and the multiscreen filter plate was allowed to stand for two hours at normal temperature. • The drugs being examined were removed through pipetting. • Filtration washing was carried out three times using 200 μL of PBS. • To immunostaining or gold staining […]

[5] = test example 2, PVDF membrane, 0, 4, 20, 100 ng/dot, 0.1 w/v % SDS
[6] = PVDF membrane, 0, 4, 20, 100 ng/dot

Row | SMILES | capacity for recognition by the specific antibodies (anti-Der f1 monoclonal antibodies), immunostaining [1, 5] | capacity for recognition by the specific antibodies (anti-Cry j1 monoclonal antibodies), immunostaining [2] | properties enabling recognition by the specific antibodies (anti-Der f1 monoclonal antibodies), immunostaining [1, 6] | other results
1 | CCCCCCCCCCCCOS(=O)(=O)[O-].[Na+] [SDS] | notably weakened | notably weakened | – | –
2 | O=C(OC[C@H]1O[C@@H](OC(=O)c2cc(O)c(O)c(OC(=O)c3cc(O)c(O)c(O)c3)c2)[C@H](OC(=O)c2cc(O)c(O)c(OC(=O)c3cc(O)c(O)c(O)c3)c2)[C@@H](OC(=O)c2cc(O)c(O)c(OC(=O)c3cc(O)c(O)c(O)c3)c2)[C@@H]1OC(=O)c1cc(O)c(O)c(OC(=O)c2cc(O)c(O)c(O)c2)c1)c1cc(O)c(O)c(OC(=O)c2cc(O)c(O)c(O)c2)c1 [tannic acid] | – | – | – | allergenicity in a cutaneous reaction test [3]: allergenicity can be mitigated
3 | OO [hydrogen peroxide water, hydrogen peroxide] | – | – | weakened | –
4 | OCl [sodium hypochlorite] | notably weakened | – | – | capacity for recognition by the specific antibodies (anti-Der f1 monoclonal antibodies), immunostaining ([1]; test example 1, PVDF membrane, 0-100 ng/dot): notably weakened
5 | N=C(N)N [guanidine] | – | notably weakened | – | capacity for recognition by the specific antibodies (anti-Cry j1 monoclonal antibodies), immunostaining [4]: notably weakened
6 | Cl [hydrochloric acid] | – | – | weakened | –
